From patent publication US20090318385A1, “Pyrazolopyride derivative and phosphodiesterase ( pde) inhibitors containing the same as active ingredient” (priority 2006, published 2009)

Columns and labels:
PDE4B catalytic domain = target: T1, PDE4B catalytic domain (Homo sapiens, UniProt Q07343); experiment: Phosphodiesterase inhibitory activity (recombinant PDE4Bcat, [3H]cAMP); type: biochemical; conditions: 30° C. for 20 minutes, read-out: IC50 (μmol/L) PDE4
T1 construct: The cDNA of PDE4B catalytic domain (hereinafter abbreviated as Cat) was isolated from human RNA by RT-PCR; made in house; host or cells: Sf9 insect cells (baculovirus, Bac-to-Bac)
T1 sequence (Q07343 330-659 limits assumed): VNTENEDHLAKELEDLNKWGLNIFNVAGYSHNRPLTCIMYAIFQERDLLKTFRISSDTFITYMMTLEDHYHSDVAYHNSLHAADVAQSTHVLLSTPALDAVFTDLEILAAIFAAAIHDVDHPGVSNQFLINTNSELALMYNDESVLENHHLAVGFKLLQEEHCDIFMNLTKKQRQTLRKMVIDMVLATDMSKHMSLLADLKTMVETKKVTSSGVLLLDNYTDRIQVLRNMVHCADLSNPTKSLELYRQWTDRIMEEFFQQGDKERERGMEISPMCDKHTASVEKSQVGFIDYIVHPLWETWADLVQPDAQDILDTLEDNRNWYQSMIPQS
Source text: The cDNA of PDE4B catalytic domain (hereinafter abbreviated as Cat) was isolated from human RNA by RT-PCR. The isolated cDNA fragments were inserted into Sf9 insect cells using Gateway system (product of Invitrogen Corporation) and Bac-to-Bac (registered trademark) Baculovirus Expression system (product of Invitrogen Corporation) to express a target PDE protein. The recombinant PDE4Bcat was purified from the culture supernatants or cell extracts of Sf9 cells expressing high levels of the PDE protein by ion exchange chromatography and was used for the following experiments.
A 4 mmol/L solution of each test compound was serially diluted four-fold with a 15% DMSO solution to prepare solutions with concentrations of 15 nmol/L to 4 mmol/L (the final concentrations used in the experiments were 1.5 nmol/L to 400 μmol/L). 10 μL of the prepared test compound solutions, [^3H] cAMP diluted with a buffer solution (40 mmol/L Tris-HCl (pH: 7.4), 10 mmol/L MgCl2), and 40 μL of the recombinant human PDE protein (2×10^−6 units, 1 unit is defined as the amount of PDE that breaks down 1 μmol/L of cAMP in one minute under the conditions of a pH of 7.5 and 30° C.) were added to a 96-well plate. The mixtures were reacted at 30° C. for 20 minutes. Then, the resultant mixtures were reacted at 65° C. for 2 minutes. Subsequently, […] of 1 mg/mL 5′-nucleotidase (Crotalusatrox venom, product of Sigma) was added to the mixtures, and the mixtures were reacted at 30° C. for 10 minutes. After completion of the reaction, 200 μL of a solution of Dowex (300 mg/mL Dowex 1x8-400 (product of Sigma Aldrich), 33% ethanol) was added to the mixtures, and the mixtures were shaken at 4° C. for 20 minutes. Subsequently, 200 μL of MicroScint 20 (product of Packard) was added to the mixtures, and measurement was performed using a scintillation counter (Topcount, product of Packard). IC50 values were calculated using Graph Pad Prism v3.03 (product of GraphPad Software). When 1 μmol/L>the IC50 value≧0.1 μmol/L, the results were represented by “+.” When 0.1 μmol/L>the IC50 value, the results were represented by “++.”

[1] = test system: total number of leukocytes in bronchoalveolar lavage fluid after LPS inhalation; experiment: LPS acute inflammation model in rats; type: in vivo; conditions: Rattus norvegicus, Leukocyte, po, 3 mg/kg orally one hour before LPS inhalation, total leukocytes in BALF 3 hours after LPS inhalation, read-out: Inhibition ratio
Method: 3 mg/kg of the compounds were orally administered to rats one hour before inhalation of lipopolysaccharide (LPS) from E. coli serotype 055:B5, rats were inhalted nebulizing LPS solution (50 mL) by nebulizer for 30 minutes. Then, 3 hours after the LPS inhalation, rats were euthanized with 20% urethane (5 ml/rat, i.p.) 5 ml of physiological saline for bronchoalveolar lavage was injected into the bronchoalveolar space through the airway, and the bronchoalveolar space was washed 3 times using a 5 mL syringe. This procedure was repeated twice, and the solution was collected as bronchoalveolar lavage fluid (BALF). The collected BALF was centrifuged at 1,200 rpm and 4° C. for 10 minutes (Hirtachi; himac CR 5 DL). The sediment was re-suspended in 10 mL of a 0.1% bovine serum albumin-physiological saline, and an equivalent amount of Turk's solution was added to the suspension to stain leukocytes. The total number of leukocytes was counted under a microscope to determine the inhibition ratio. When the inhibition ratio≧60%, the results were represented by “++.” When 60%>the inhibition ratio≧30%, the results were represented by “+.”

[2] = test system: histamine-induced bronchoconstriction; experiment: Histamine-induced airway contraction reaction in guinea pigs; type: in vivo; conditions: test compound 1 mg/kg i.v., histamine 12.5 μg/kg i.v., airflow 30 seconds after administration
Method: Guinea pigs were anesthetized with pentobarbital (30 mg/kg, i.p.). A cannula for intravenous administration, a cannula for collecting blood and measuring blood pressure, and a tracheal cannula were inserted into the left external jugular vein, right internal carotid artery, and trachea, respectively. The guinea pigs were maintained on artificial respiration under the conditions of 60 times/min and 10 mL/kg/stroke. The airflow from the side branch of the tracheal cannula was measured by a bronchospasm transducer (Ugo-Basile) and recorded on a computer via Power Lab (ADInstruments Japan). The guinea pigs were immobilized with gallamine (10 mg/kg, i.v.), and histamine was administered at 10-minute intervals (12.5 μg/kg, i.v.). After the histamine-induced bronchoconstriction was constant, one of the test compounds (1 mg/kg, i.v.) dissolved in DMSO was administered. We examined the inhibitory action of test compounds on histamine-induced bronchoconstriction 30 seconds after compounds administration. Bronchoconstriction was recorded as the value of airflow, and the results were represented by the ratio of the maximum value of the histamine-induced airflow 30 seconds after the administration to the maximum value of the airflow before the administration. When the inhibition ratio≧90%, the results were represented by “+++.” When 90%>the inhibition ratio≧70%, the results were represented by “++.” When 70%>the inhibition ratio≧30%, the results were represented by “+.”

| Structure (SMILES) | IC50 (PDE4B catalytic domain) | inhibition in vivo at 3 mg/kg [1] | Inhibition ratio [2] |
| --- | --- | --- | --- |
| COc1ccc(CCc2ccncc2)c2cc(C(F)(F)F)nn12 [Example 79, 7-Methoxy-4-[(2-pyridin-4-yl)ethyl]-2-trifluoromethylpyrazolo[1,5-a]pyridine] | < 0.1 µmol/L | ≥ 60% | + (When 70%>the inhibition ratio≧30%, the results were represented by “+.”) |
| COc1ccc(/C=C/c2c(Cl)cncc2Cl)c2cc(C(F)(F)F)nn12 [Example 89, (E)-4-[2-(3,5-dichloropyridin-4-yl)vinyl]-7-methoxy-2-trifluoromethylpyrazolo[1,5-a]pyridine] | < 0.1 µmol/L | 30 to 60% | + (When 70%>the inhibition ratio≧30%, the results were represented by “+.”) |
| COc1ccc(C=Cc2ccncc2)c2cc(C(F)(F)F)nn12 [Example 78, 7-Methoxy-4-[(2-pyridin-4-yl)vinyl]-2-trifluoromethylpyrazolo[1,5-a]pyridine] | < 0.1 µmol/L | 30 to 60% | + (When 70%>the inhibition ratio≧30%, the results were represented by “+.”) |
| COc1ccc(C(=O)Cc2c(Cl)cncc2Cl)c2cc(C(F)(F)F)nn12 [Example 88, 2-(3,5-Dichloropyridin-4-yl)-1-(7-methoxy-2-trifluoromethylpyrazolo[1,5-a]pyridin-4-yl)ethanone] | < 0.1 µmol/L | ≥ 60% | ++ (When 90%>the inhibition ratio≧70%, the results were represented by “++.”) |
